Tests used:
[1] = tested on: olfactory nerve recovery after bilateral olfactory nerve transection; experiment: Buried food task after bilateral olfactory nerve transection (BNX)
complicated anosmia = conditions: Duncan et al. 1962; cited from earlier work

| Molecule | initial rate of recovery versus BNX-oil ([1]; BNX mice, FIG. 1, food-finding times to post-surgical day 14) | treatment effect on mean food finding times across the recovery period ([1]; BNX mice, post-surgical days 3-14, two-factor repeated measures ANOVA, F(1,15)=5.85, p<0.05, treatment X day interaction p<0.005) | mean post-surgical day on which animals reached criterion for initial recovery (first day of three consecutive days of <180 seconds food-finding time) ([1]; BNX mice, single oral 75 mg/kg atRA in sesame oil one day after surgery, n=9, BNX-oil 10.75±1.28, p<0.05) [post-surgical day] | post-surgical days between which animals reached criterion for initial recovery ([1]; BNX mice, single oral 75 mg/kg atRA in sesame oil, n=9) | recovery time needed to return to pre-surgical level of performance (≦30 seconds) ([1]; BNX mice, single oral 75 mg/kg atRA, no difference from BNX-oil (9.25 days), p=0.761) [days] | food-finding performance of sham-operated animals after surgery ([1]; sham mice, single oral 75 mg/kg atRA, n=4, FIG. 1) | usefulness in treating anosmia associated with skull injuries and fractures with sheering of olfactory nerves (complicated anosmia) |
| --- | --- | --- | --- | --- | --- | --- | --- |
| CC1=C(/C=C/C(C)=C/C=C/C(C)=C/C(=O)O)C(C)(C)CCC1 [RA, all-trans retinoic acid] | faster | significant treatment effect | 7.56±0.67 | 4-11 post-surgical days | 9.8 | performed at pre-surgical levels | – |
| Vitamin A | – | – | – | – | – | – | not to be useful |

Source: patent US6506801B1, “Methods of treating anosmia and repopulating olfactory nerves with retinoids” (Monell Chemical Senses Center, priority 2000, dated 2003)
